The values that follow come from ChEMBL document CHEMBL4819006, “1,4,6-Trisubstituted imidazo[4,5-c]pyridines as inhibitors of Bruton's tyrosine kinase” (Eur J Med Chem, 2021).

Calls of active or inactive are those of the source. The rule behind the calls is not given here.

Experiment [1] has as its target T1, Mitogen-activated protein kinase; ERK1/ERK2 (Homo sapiens) (UniProt P27361+P28482). As to the kind of experiment: Inhibition of ERK1/2 in human Ramos cells assessed as reduction in ERK1/2 phosphorylation at 0.125 to 1 uM measured after 24 hrs by western blot assay. Type of experiment: cell-based. As to conditions: dose 0.125-1 µM. (A western blot detects proteins with antibodies after separation by electrophoresis.)

Experiment [2] deals with T1, Mitogen-activated protein kinase; ERK1/ERK2 (Homo sapiens). As to the kind of experiment: Inhibition of ERK1/2 in human UPF7U cells assessed as reduction in ERK1/2 phosphorylation at 0.125 to 1 uM measured after 24 hrs by western blot assay. In kind it is cell-based. As to conditions: dose 0.125-1 µM.
For experiment [3], the target named is Tyrosine-protein kinase SYK (Homo sapiens) (UniProt P43405). As to the kind of experiment: Inhibition of human recombinant GST-tagged SYK (M1 to N635 residues) assessed as residual activity using poly (Glu,Tyr) as substrate in presence of ATP and Ci(gamma33-P) ATP at 1 uM measured by microplate reader assay.
Experiment [4] has as its target Proto-oncogene tyrosine-protein kinase Src (Homo sapiens) (UniProt P12931). Description: Inhibition of recombinant SRC (unknown origin) assessed as residual activity at 1 uM.
For experiment [5], the target named is Tyrosine-protein kinase ABL1 (Homo sapiens) (UniProt P00519). Description: Inhibition of Abl (unknown origin) expressed in Sf9 cells assessed as residual activity using GGEAIYAAPFKK peptide as substrate in presence of ATP and Ci(gamma33-P)ATP at 1 uM measured by microplate reader.
For experiment [6], the target named is Cyclin-dependent kinase 2 (Homo sapiens) (UniProt P24941). Description: Inhibition of GST-tagged CDK2/cyclinE (unknown origin) expressed in Sf9 cells assessed as residual activity using histone H1 as substrate in presence of ATP and Ci(gamma33-P) ATP at 1 uM measured by microplate reader assay.
Experiment [7] concerns the target T2, Tyrosine-protein kinase BTK (Homo sapiens, UniProt Q06187). Description: Inhibition of human BTK using poly (Glu,Tyr) as substrate in presence of ATP and Ci(gamma33-P) ATP measured by microplate reader assay.
Experiment [8] in a line: Growth inhibition of human patient derived UPF7U cells assessed as inhibition of cell growth measured after 72 hrs by resazurin dye based assay. To be noted: Homo sapiens, UPF7U. In kind it is functional. (In general: Alamar Blue is a resazurin reagent that responds to reducing activity.)
In experiment [9] the target is T2, Tyrosine-protein kinase BTK. As to the kind of experiment: Inhibition of BTK in human Ramos cells assessed as reduction of IgM stimulated BTK phosphorylation measured after 24 hrs by western blot assay. In kind it is cell-based. As to conditions: dose 0.125-1 µM.
For a further experiment, the system named is Ramos. As to the kind of experiment: Growth inhibition of human Ramos cells assessed as inhibition of cell growth measured after 72 hrs by resazurin dye based assay. To be noted: Homo sapiens, Ramos. Type of experiment: functional.
In another experiment the test system is Rec1. Description: Growth inhibition of human REC1 cells assessed as inhibition of cell growth measured after 72 hrs by resazurin dye based assay. Type of experiment: functional. To be noted: Homo sapiens, Rec1.
Experiment [10] has as its target T2, Tyrosine-protein kinase BTK. Description: Inhibition of BTK in human UPF7U cells assessed as reduction of IgM stimulated PLCgamma1 (Y783) phosphorylation at 0.125 to 1 uM measured after 24 hrs by western blot assay relative to Ibrutinib. In kind it is cell-based. To be noted: dose 0.125-1 µM.
Experiment [11] has the same target. Description: Inhibition of BTK in human Ramos cells assessed as reduction of IgM stimulated PLCgamma2 (Y1217) phosphorylation at 0.125 to 1 uM measured after 24 hrs by western blot assay relative to Ibrutinib. In kind it is cell-based. As to conditions: dose 0.125-1 µM.
The target in experiment [12] is Tyrosine-protein kinase Lck (Homo sapiens) (UniProt P06239). Description: Inhibition of recombinant LCK (unknown origin) assessed as residual activity at 1 uM.
Experiment [13] concerns the target Tyrosine-protein kinase Fyn (Homo sapiens) (UniProt P06241). As to the kind of experiment: Inhibition of human recombinant full length GST-tagged FYN (M1 to L537 residues) assessed as residual activity using poly (Glu,Tyr) as substrate in presence of ATP and Ci(gamma33-P) ATP at 1 uM measured by microplate reader assay.
Experiment [14] can be described thus: Growth inhibition of human patient derived UPF1H cells assessed as inhibition of cell growth measured after 72 hrs by resazurin dye based assay. Type of experiment: functional. As to conditions: Homo sapiens, UPF1H.
In another experiment the test system is K562. As to the kind of experiment: Growth inhibition of human K562 cells assessed as inhibition of cell growth measured after 72 hrs by resazurin dye based assay. Type of experiment: functional. As to conditions: Homo sapiens, K562.
The target in experiment [15] is T2, Tyrosine-protein kinase BTK. As to the kind of experiment: Inhibition of BTK in human Ramos cells assessed as reduction of IgM stimulated PLCgamma1 (Y783) phosphorylation at 0.125 to 1 uM measured after 24 hrs by western blot assay relative to Ibrutinib. In kind it is cell-based. As to conditions: dose 0.125-1 µM.
Experiment [16] has the same target. Description: Inhibition of human BTK assessed as residual activity using poly (Glu,Tyr) as substrate in presence of ATP and Ci(gamma33-P) ATP at 1 uM measured by microplate reader assay.
Experiment [17] has the same target. As to the kind of experiment: Inhibition of BTK in human UPF7U cells assessed as reduction of IgM stimulated BTK phosphorylation measured after 24 hrs by western blot assay. In kind it is cell-based. As to conditions: dose 0.125-1 µM.
The target is the same in experiment [18]. Description: Inhibition of BTK in human UPF7U cells assessed as reduction of IgM stimulated PLCgamma2 (Y1217) phosphorylation at 0.125 to 1 uM measured after 24 hrs by western blot assay relative to Ibrutinib. Type of experiment: cell-based. As to conditions: dose 0.125-1 µM.
Experiment [19] deals with Receptor-type tyrosine-protein kinase FLT3 (Homo sapiens) (UniProt P36888). As to the kind of experiment: Inhibition of human recombinant […] N-terminal GST-tagged FLT3 (R571 to S993 residues) assessed as residual activity using poly (Ala, Glu, Lys, Tyr) hydrobromide as substrate in presence of ATP and Ci(gamma33-P) ATP at 1 uM measured by microplate reader assay.

In experiment [20] the target is T2, Tyrosine-protein kinase BTK. As to the kind of experiment: Inhibition of BTK in human Ramos cells assessed as reduction of IgM stimulated PLCgamma2 (Y1217) phosphorylation at 1 to 5 uM measured after 24 hrs by western blot assay. In kind it is cell-based. As to conditions: dose 1-5 µM.
In experiment [21] the target is T1, Mitogen-activated protein kinase; ERK1/ERK2 (Homo sapiens). As to the kind of experiment: Inhibition of ERK1/2 in human Ramos cells assessed as reduction in ERK1/2 phosphorylation at 1 to 5 uM measured after 24 hrs by western blot assay. In kind it is cell-based. As to conditions: dose 1-5 µM.
Experiment [22] has as its target T2, Tyrosine-protein kinase BTK. Description: Inhibition of BTK in human Ramos cells assessed as reduction of IgM stimulated BTK ([…]) phosphorylation at 1 to 5 uM measured after 24 hrs by western blot assay. In kind it is cell-based. To be noted: dose 1-5 µM.

T1 sequence (P27361 whole entry, looked up): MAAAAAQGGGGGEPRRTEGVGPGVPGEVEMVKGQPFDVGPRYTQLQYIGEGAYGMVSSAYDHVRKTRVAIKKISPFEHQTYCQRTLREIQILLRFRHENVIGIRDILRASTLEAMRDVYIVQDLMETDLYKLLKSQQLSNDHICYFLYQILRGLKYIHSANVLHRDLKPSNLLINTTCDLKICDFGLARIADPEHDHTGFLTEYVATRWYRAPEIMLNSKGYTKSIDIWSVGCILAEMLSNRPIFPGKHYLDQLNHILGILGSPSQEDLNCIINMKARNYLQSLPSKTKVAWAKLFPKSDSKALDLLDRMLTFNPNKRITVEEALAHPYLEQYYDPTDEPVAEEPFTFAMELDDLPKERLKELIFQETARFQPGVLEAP
T1 sequence (P28482 whole entry, looked up): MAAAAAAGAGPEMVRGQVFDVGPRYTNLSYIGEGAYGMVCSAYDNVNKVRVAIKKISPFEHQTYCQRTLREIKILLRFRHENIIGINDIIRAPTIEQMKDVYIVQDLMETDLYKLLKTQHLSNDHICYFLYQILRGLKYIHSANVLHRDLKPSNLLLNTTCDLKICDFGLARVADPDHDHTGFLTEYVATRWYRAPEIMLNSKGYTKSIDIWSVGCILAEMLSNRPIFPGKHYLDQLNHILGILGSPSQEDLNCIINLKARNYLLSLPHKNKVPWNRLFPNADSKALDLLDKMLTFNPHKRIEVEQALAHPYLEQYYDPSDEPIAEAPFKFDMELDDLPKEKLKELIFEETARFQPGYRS
T2 sequence (Q06187 whole entry): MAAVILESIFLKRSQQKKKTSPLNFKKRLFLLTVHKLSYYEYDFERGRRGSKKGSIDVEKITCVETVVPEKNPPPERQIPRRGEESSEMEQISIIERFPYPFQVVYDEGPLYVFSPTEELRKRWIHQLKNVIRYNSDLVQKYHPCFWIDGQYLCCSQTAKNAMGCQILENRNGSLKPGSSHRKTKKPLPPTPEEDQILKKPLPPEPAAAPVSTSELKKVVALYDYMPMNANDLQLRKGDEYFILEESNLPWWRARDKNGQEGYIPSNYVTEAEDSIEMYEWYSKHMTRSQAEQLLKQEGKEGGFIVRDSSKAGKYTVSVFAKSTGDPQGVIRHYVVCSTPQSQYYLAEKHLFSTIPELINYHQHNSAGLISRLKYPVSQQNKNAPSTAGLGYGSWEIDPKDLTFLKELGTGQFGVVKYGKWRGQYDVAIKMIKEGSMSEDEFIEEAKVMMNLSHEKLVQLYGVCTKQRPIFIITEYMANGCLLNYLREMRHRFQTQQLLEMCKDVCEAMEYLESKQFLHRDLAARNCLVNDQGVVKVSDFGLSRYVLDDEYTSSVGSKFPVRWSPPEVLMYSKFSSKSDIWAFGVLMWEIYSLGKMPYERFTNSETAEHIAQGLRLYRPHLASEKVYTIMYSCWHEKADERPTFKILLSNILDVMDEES
Sequence of Tyrosine-protein kinase ABL1 (Homo sapiens) (P00519 whole entry): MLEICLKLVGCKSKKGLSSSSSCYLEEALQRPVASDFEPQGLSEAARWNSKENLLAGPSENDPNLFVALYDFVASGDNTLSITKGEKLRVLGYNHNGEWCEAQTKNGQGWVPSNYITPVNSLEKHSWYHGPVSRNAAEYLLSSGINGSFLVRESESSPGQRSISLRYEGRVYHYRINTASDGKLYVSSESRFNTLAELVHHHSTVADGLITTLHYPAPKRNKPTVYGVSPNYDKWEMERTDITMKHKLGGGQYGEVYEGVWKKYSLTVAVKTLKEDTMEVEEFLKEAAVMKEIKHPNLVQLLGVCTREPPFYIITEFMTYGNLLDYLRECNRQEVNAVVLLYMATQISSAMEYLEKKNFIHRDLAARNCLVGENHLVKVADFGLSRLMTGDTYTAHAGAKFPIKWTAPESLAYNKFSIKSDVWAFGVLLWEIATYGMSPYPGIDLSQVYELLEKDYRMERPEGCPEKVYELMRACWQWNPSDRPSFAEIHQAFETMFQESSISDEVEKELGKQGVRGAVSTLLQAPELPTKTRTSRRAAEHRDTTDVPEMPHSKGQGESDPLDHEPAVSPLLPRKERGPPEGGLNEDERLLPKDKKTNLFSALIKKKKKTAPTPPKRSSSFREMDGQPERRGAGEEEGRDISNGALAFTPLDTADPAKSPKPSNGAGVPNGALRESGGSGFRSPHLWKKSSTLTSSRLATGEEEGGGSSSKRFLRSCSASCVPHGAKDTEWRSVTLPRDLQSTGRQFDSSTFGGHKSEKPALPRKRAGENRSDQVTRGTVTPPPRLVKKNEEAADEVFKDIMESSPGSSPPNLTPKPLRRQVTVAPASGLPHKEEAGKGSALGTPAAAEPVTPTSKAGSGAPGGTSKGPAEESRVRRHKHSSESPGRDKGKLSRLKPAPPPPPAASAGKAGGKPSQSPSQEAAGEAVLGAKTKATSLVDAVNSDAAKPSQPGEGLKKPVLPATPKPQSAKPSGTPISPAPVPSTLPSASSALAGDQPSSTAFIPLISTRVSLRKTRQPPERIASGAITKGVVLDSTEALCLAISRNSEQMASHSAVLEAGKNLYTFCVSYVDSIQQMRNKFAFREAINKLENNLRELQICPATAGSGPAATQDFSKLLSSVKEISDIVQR
Sequence of Tyrosine-protein kinase Fyn (Homo sapiens) (P06241 2-537 limits assumed): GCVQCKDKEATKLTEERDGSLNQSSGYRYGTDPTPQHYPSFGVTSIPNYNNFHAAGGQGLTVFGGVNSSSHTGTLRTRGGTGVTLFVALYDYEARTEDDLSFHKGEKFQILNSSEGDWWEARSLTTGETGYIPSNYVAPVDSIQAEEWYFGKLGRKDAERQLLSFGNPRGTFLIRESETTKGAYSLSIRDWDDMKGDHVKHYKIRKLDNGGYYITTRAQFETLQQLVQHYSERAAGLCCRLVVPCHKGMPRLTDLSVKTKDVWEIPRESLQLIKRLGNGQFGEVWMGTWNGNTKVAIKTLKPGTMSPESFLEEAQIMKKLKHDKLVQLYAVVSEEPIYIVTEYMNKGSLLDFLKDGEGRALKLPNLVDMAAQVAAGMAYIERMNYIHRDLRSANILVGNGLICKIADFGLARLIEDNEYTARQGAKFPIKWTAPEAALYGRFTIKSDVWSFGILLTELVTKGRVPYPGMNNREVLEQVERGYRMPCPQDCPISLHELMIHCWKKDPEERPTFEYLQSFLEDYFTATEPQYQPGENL
Sequence of Receptor-type tyrosine-protein kinase FLT3 (Homo sapiens) (P36888 whole entry, the tested form may be a part): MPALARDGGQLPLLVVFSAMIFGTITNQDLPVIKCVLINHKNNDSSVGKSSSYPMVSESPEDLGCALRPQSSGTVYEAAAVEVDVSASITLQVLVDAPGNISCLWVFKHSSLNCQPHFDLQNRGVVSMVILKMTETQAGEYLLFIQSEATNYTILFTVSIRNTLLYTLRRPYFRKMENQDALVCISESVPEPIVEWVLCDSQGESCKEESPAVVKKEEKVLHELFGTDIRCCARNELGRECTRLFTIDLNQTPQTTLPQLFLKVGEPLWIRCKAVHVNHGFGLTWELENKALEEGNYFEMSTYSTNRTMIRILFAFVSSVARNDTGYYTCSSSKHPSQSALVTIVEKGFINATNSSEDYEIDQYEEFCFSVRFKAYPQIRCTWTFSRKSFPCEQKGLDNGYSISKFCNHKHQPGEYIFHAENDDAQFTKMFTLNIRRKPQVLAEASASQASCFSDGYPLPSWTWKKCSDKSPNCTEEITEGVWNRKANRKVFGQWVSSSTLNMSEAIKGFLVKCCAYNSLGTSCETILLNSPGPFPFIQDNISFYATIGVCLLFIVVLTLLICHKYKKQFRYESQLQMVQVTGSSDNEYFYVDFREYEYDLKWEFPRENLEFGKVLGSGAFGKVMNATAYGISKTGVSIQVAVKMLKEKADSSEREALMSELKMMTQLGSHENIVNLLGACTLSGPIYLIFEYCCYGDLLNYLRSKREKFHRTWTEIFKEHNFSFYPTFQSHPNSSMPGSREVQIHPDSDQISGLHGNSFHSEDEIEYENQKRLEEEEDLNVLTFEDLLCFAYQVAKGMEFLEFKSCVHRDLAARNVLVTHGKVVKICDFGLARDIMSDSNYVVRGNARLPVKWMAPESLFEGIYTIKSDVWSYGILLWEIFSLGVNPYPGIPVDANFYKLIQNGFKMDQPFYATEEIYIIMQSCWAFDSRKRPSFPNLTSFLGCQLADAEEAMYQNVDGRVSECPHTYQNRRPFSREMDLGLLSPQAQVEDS
Sequence of Tyrosine-protein kinase Lck (Homo sapiens) (P06239 2-509 limits assumed): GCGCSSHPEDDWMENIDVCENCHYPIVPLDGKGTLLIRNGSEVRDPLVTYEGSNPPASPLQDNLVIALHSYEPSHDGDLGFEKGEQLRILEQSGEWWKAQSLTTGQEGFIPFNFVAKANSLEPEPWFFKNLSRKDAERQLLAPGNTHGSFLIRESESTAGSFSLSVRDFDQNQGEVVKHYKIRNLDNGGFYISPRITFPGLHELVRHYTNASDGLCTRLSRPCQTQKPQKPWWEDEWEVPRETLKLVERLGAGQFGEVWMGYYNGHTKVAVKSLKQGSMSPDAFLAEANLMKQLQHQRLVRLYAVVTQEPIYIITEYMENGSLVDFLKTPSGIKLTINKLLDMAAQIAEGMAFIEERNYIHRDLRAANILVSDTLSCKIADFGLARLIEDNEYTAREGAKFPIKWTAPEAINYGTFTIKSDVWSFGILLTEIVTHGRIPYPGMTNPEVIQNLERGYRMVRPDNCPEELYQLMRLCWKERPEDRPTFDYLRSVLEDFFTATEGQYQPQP

As for `c1cn2cc(-c3ccc4cn[nH]c4c3)nc(Nc3ccc(N4CCOCC4)cc3)c2n1`, the inhibition entry in experiment [1] and in experiment [2] was “Active” in each case.
On to `CC(C)(C)c1ccc(C(=O)Nc2cccc(-c3cc4[nH]cnc4c(Nc4ccc(C(=O)N5CCOCC5)cc4)n3)c2)cc1`, for which the Activity was 71.4% in experiment [3]; 95.9% in [5]; 98.7% in [6]; 86.4% in [13]; 14.7% in experiment [16]; above 100% in [19]. The inhibition result in experiment [4], in experiment [10], in experiment [11], in [12], in experiment [15] and in [18] was “Active” throughout. The IC50 in experiment [7] worked out at 0.027 µM. In addition, the GI50 amounted to 5.5 µM in [8]; 1.2 µM in the experiment with Ramos; 6 µM in the experiment on Rec1; 1 µM in experiment [14]; 2.3 µM with K562. Further, the inhibition result in experiment [9] and in [17] was “Dose-Dependent Effect” in each case.
For `Cc1c(NC(=O)c2ccc(C(C)(C)C)cc2)cccc1-c1cc2[nH]cnc2c(Nc2ccc(C(=O)N3CCOCC3)cc2)n1`, the Activity in experiment [3] was 80.3%; in [5] it was above 100%; in experiment [6] it was 92.1%; in experiment [13], 80.6%; in [16], 18.4%; in experiment [19], 51.9%. Besides, the inhibition result in [20] and in experiment [22] was “Active” throughout. For the same compound, the IC50 in experiment [7] is 0.025 µM. Also, the GI50 is 20.6 µM in experiment [8]; 16.5 µM in the experiment on Ramos; 24 µM in the experiment with Rec1; 12.2 µM in experiment [14]; 32.7 µM in the experiment on K562. In experiment [21], the inhibition entry was “inactive”.

A word on the IC50: it is the concentration at which inhibition is half-maximal. For orientation: GI50 means the concentration at which growth is held to half of that of the control.
